Assay results reported in patent US20230028441A1, “NOVEL HETEROARYL-TRIAZOLE COMPOUNDS AS PESTICIDES” (Bayer Aktiengesellschaft, priority 2019, published 2023).

Tests used:
Assay type in all cases: in vivo
[1] = tested on: larvae of the southern green stink bug (Nezara viridula); assay: Nezara viridula spray test; details: in Hordeum vulgare, 96 h
Procedure, shortened: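 Percent mortality of southern green stink bug larvae read 4 days after spraying infested Hordeum vulgare. Test solutions: compound in acetone plus dimethylformamide, diluted with emulsifier-containing water (1000 ppm alkylarylpolyglycol ether).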

[2] = tested on: cattle tick larvae (Rhipicephalus microplus), strain Parkhurst, resistant against synthetic pyrethroids; assay: Rhipicephalus (Boophilus) microplus in-vitro contact test, larval cattle tick; details: 5 μg/cm^2 (=500 g/ha), after 48 hours, read-out: efficacy (larvae dead or moribund)
Procedure, shortened: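 Efficacy, 100% meaning all larvae dead or moribund, was judged at 48 h from loss of negative geotactic climbing. Larvae of the Parkhurst strain, 20–50 per tube, were exposed at 27° C and 85% humidity to acetone-coated tube surfaces; 900 ppm corresponded to 5 μg/cm^2.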

[3] = tested on: fall armyworm larvae (Spodoptera frugiperda); assay: Spodoptera frugiperda spray test (maize leaf sections); details: 168 h
Procedure, shortened: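 Percent kill of Spodoptera frugiperda larvae was recorded 7 days after infesting dried, treated maize leaf sections. Spray solutions were made from an acetone/DMF compound preparation diluted with 1000 ppm emulsifier-containing water.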

[4] = tested on: adult cat fleas (Ctenocephalides felis); assay: Ctenocephalides felis in-vitro contact test, adult cat flea; details: 5 μg/cm^2 (=500 g/ha), after 48 hours, read-out: efficacy (fleas dead or moribund)
Description: (§1) 9 mg compound is solved in 1 mL acetone and diluted with acetone to the desired concentration. 250 μL of the test solution is filled in 25 mL glass test tubes and homogeneously distributed on the inner walls by rotation and tilting on a shaking device (2 h at 30 rpm). With a compound concentration of 900 ppm, an inner surface of 44.7 cm^2 and a homogeneous distribution, a dose of 5 μg/cm^2 is achieved.
(§2) After the solvent has evaporated, each test tube is filled with 5-10 adult cat fleas (Ctenocephalides felis), closed with a perforated lid and incubated in a lying position at room temperature and relative humidity. After 48 hours efficacy is determined. The fleas are patted on the ground of the tubes and are incubated on a heating plate at 45-50° C. for at most 5 minutes. Immotile or uncoordinated moving fleas, which are not able to escape the heat by climbing upwards, are marked as dead or moribund.
An efficacy of 100% means all fleas are dead or moribund; 0% means no fleas are dead or moribund.

[5] = tested on: adult brown dog ticks (Rhipicephalus sanguineus); assay: Rhipicephalus sanguineus in-vitro contact test with adult brown dog ticks; details: after 48 hours, read-out: efficacy (ticks dead or moribund)
Description: as §1
as §2, with “brown dog ticks (Rhipicephalus sanguineus),” for “cat fleas (Ctenocephalides felis),”, “ticks” for “fleas”, “ticks,” for “fleas,”
An efficacy of 100% means all ticks are dead or moribund; 0% means no ticks are dead or moribund.

[6] = tested on: adult engorged female ticks (Rhipicephalus microplus); assay: Rhipicephalus (Boophilus) microplus injection test; details: 168 h, egg deposition after 7 days, read-out: efficacy (infertile eggs)
Procedure, shortened: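 Efficacy is the share of infertile eggs: 100% means none are fertile, 0% means all are fertile. Egg deposition was checked 7 days after injecting 1 μL of DMSO-diluted compound into the abdomen of five engorged female R. microplus, with doubtful eggs kept about 42 days to hatching. The stock was 10 mg in 0.5 mL DMSO.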

[7] = tested on: adult unfed cat fleas (Ctenocephalides felis); assay: Ctenocephalides felis oral test; details: 48 h, 100 ppm in cattle blood, after 2 days
Procedure, shortened: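 Percent flea mortality recorded at 2 days. Compound was dissolved in dimethyl sulfoxide and diluted into cattle blood, which ~20 unfed adult cat fleas ingested through parafilm from a 37°C-heated chamber, their own chamber kept at room temperature.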

[8] = tested on: brown planthopper (Nilaparvata lugens); assay: Nilaparvata lugens spray test; details: in Oryza sativa, 96 h
Description: Solvent: 78.0 parts by weight of acetone • • 1.5 parts by weight of dimethylformamide
Emulsifier: alkylarylpolyglycol ether
To produce a suitable preparation of active compound, 1 part by weight of active compound is mixed with the stated amount of solvents and is diluted with water, containing an emulsifier concentration of 1000 ppm, to the desired concentration. Further test concentrations are prepared by dilution with emulsifier containing water.
Rice plants (Oryza sativa) are sprayed with a preparation of the active ingredient of the desired concentration and the plants are infested with the brown planthopper (Nilaparvata lugens).
After 4 days mortality in % is determined. 100% means all planthoppers have been killed and 0% means none of the planthoppers have been killed.

[9] = tested on: larvae of the banded cucumber beetle (Diabrotica balteata); assay: Diabrotica balteata spray test; details: 168 h, 100 g/ha (=32 μg/well), after 7 days, wheat seeds, read-out: efficacy (seedlings grown up)
Procedure, shortened: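 Efficacy (%) read at day 7: 100% means seedlings grew like untreated, uninfested controls; 0% means no seedlings grew. Wheat seeds germinated 1 day on agar, sprayed with emulsified compound solution (1000 ppm emulsifier in water), then each well infested with 10-20 larvae.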

Structure (SMILES)	mortality at 500 g/ha [1] [%]	pest or weed control at 5 µg/cm2 [2] [%]	mortality at 100 g/ha [3] [%]	pest or weed control at 5 µg/cm2 [4] [%]	pest or weed control at 1 µg/cm2, 100 g/ha ([5]; 1 μg/cm^2 (=100 g/ha)) [%]	pest or weed control at 5 µg/cm2, 500 g/ha ([5]; 5 μg/cm^2 (=500 g/ha)) [%]	pest or weed control at 0.004 mg ([6]; 4 μg/animal) [%]	pest or weed control at 0.02 mg ([6]; 20 μg/animal) [%]	mortality at 100 ppm [7] [%]	mortality at 500 g/ha [8] [%]	pest or weed control at 32 µg/disc, 100 g/ha [9] [%]
CC(NC(=O)c1cc(C(F)(F)F)cc(C(F)(F)F)c1)c1nc(N)nn1-c1ccc(C(=O)N2CCOCC2)cn1 (stereo not shown) [I-115]	100	100	100	100	100	100	–	–	–	–	–
CNc1nc(C(C)NC(=O)c2cc(Cl)cc(Br)c2)n(-c2ncccn2)n1 (stereo not shown) [I-121]	–	100	100	100	–	–	100	100	100	90	100
C[C@H](NC(=O)c1cc(C(F)(F)F)cc(C(F)(F)F)c1)c1nc(N(C)C(=O)OC(C)(C)C)nn1-c1ncccn1 [I-133, tert-butyl N-[5-[(1S)-1-[[3,5-bis(trifluoromethyl)benzoyl]amino]ethyl]-1-pyrimidin-2-yl-1,2,4-triazol-3-yl]-N-methyl-carbamate]	100	100	100	100	–	–	–	–	–	100	100
CNc1nc([C@H](C)NC(=O)c2cc(Cl)cc(C(C)(C)C#N)c2)n(-c2ncccn2)n1 [I-137]	100	80	100	90	–	–	–	–	–	90	100
C[C@H](NC(=O)c1cc(C(F)(F)F)cc(C(F)(F)F)c1)c1nc(N(C)C)nn1-c1ncc(Cl)cn1 [I-176]	100	–	100	–	–	–	–	–	–	100	100
C[C@H](NC(=O)c1cc(OC(F)(F)F)cc(C2CC2)c1)c1nc(N(C)C)nn1-c1ncc(Cl)cn1 [I-177]	100	–	100	–	–	–	–	–	–	100	100
CCS(=O)(=O)c1cc(OC(F)(F)F)cc(C(=O)N[C@@H](C)c2nc(NC)nn2-c2ncccn2)c1 [I-180]	100	–	100	–	–	–	–	–	–	100	100
CNc1nc([C@H](C)NC(=O)c2cc(C3CC3)cc(S(=O)(=O)C(F)(F)F)c2)n(-c2ncccn2)n1 [I-183]	100	–	100	–	–	–	–	–	–	100	100
CNc1nc([C@H](C)NC(=O)c2cc(Cl)cc(S(=O)(=O)C(F)(F)F)c2)n(-c2ncccn2)n1 [I-186]	100	–	100	–	–	–	–	–	–	100	100
